From US20110182954A1, “ORALLY-ADMINISTERED AGENT” (LINTEC Corporation, priority 2008, published 2011)

Assay: Viscosity of aqueous solution of constituent material (E-type viscometer)
Type: physicochemical
Settings: for Water absorption promoter, Viscosity: aqueous solution of 5 mass % at 37° C., Examples 1-3, 7, 10-12 glycerin, other Examples the promoter other than glycerin; for Antiadhesive agent, Viscosity: aqueous solution of 5 mass % of the antiadhesive agent at 37° C.
Procedure: Tables 1 and 2 shown the constituent materials of the intestinal collapse-controlling layer, the gel-forming layer and the antiadhesive layer of the orally-administered agents obtained in the respective Examples and the respective Comparative Examples and the contents thereof. […] Furthermore, the viscosity of the water absorption promoter in the Table 1 and the viscosity of the antiadhesive agent in the Table 2 denote a viscosity at 37° C. of an aqueous solution of 5 mass % of the water absorption promoter and the antiadhesive agent, respectively. Each viscosity was measured with an E-type viscometer (a product of Tokimec, Inc.).

SMILES	Water absorption promoter, Viscosity [mPa · s]	Antiadhesive agent, Viscosity [mPa · s]
OC[C@@H](O)[C@H](O)[C@@H](O)CO [Xyl, xylitol]	1.08	0.87
OC[C@@H](O)[C@@H](O)[C@H](O)[C@H](O)CO [Man, mannitol]	0.87	0.87
